Assay results reported in US20170334899A1, “AMINO-SUBSTITUTED ISOTHIAZOLES” (Bayer Pharma Aktiengesellschaft, priority 2014, published 2017).

Assays:
[1] = tested on: human cervical tumor cell line HeLa (ATCC CCL-2); assay: SAC-Formation - Nocodazole-Induced Assay; format: cell-based; conditions: Homo sapiens, HeLa, 24 h, HeLa cells, nocodazole 0.1 μg/ml together with test compound, decrease of mitotic cells (phospho-histone H3 Ser10)
Procedure, shortened: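 HeLa cells, plated overnight, were treated 24 h at 37 °C with nocodazole (0.1 μg/ml final) plus test compound (0.005–20 μM, 0.5% DMSO) added at the same time. After fixation, anti-phospho-histone H3 Ser10 and Hoechst staining gave the mitotic cell fraction by imaging. Values came from four-parameter Hill fits.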

[2] = tested on: human cervical tumor cell line HeLa (ATCC CCL-2); assay: SAC-Formation - Paclitaxel-Induced Assay; format: cell-based; conditions: 24 h, HeLa cells, paclitaxel 0.05 μM, test range 0.005 μM-20 μM, read-out: IC50 [mol/l] SAC-Formation - Paclitaxel-Induced Assay
Procedure, shortened: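 HeLa cells incubated overnight at 37° C, then given paclitaxel (0.05 μM final) plus test compound (0.005–20 μM, 0.5% DMSO) together for 24 h at 37° C. Fixed cells stained for phospho-histone H3 Ser10 (mitotic cells) and Hoechst 33342 (cell count); imaging-derived mitotic index fitted by four-parameter Hill equation.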

SMILES	IC50 [1]	IC50 ([2]; Homo sapiens, HeLa)	IC50 [2]
Cc1nsc(Nc2cnc3ccccc3n2)c1C(=O)Nc1cccc(C(=O)NCC(=O)OC(C)(C)C)c1 [Example 54, tert-Butyl N-[3-({[3-methyl-5-(quinoxalin-2-ylamino)-1,2-thiazol-4-yl]carbonyl}amino)-benzoyl]glycinate]	990 nM	1300 nM	–
Cc1nsc(Nc2cnc3ccccc3n2)c1C(=O)Nc1cccc(C(=O)N2CCN(C(=O)OC(C)(C)C)CC2)c1 [Example 55, tert-Butyl 4-[3-({[3-methyl-5-(quinoxalin-2-ylamino)-1,2-thiazol-4-yl]carbonyl}amino)-benzoyl]piperazine-1-carboxylate]	930 nM	3100 nM	–
Cc1nsc(Nc2cnc3ccccc3n2)c1C(=O)Nc1cccc(C(=O)N[C@@H](CCC(N)=O)C(=O)OC(C)(C)C)c1 [Example 56, tert-butyl N^2-[3-({[3-methyl-5-(quinoxalin-2-ylamino)-1,2-thiazol-4-yl]carbonyl}amino)-benzoyl]glutaminate]	1200 nM	4300 nM	–
Cc1nsc(Nc2cnc3ccccc3n2)c1C(=O)Nc1cccc(C(=O)N[C@H](C(=O)OC(C)(C)C)[C@@H](C)OC(C)(C)C)c1 [Example 57, tert-Butyl O-tert-butyl-N-[3-({[3-methyl-5-(quinoxalin-2-ylamino)-1,2-thiazol-4 yl]carbonyl}amino)-benzoyl]threoninate]	340 nM	1200 nM	–
Cc1nsc(Nc2cnc(C(F)(F)F)cn2)c1C(=O)Nc1ccc(F)c(OC[C@H]2CCCN(CC(F)F)C2)c1 [Example 400, N-(3-{[(3S)-1-(2,2-difluoroethyl)piperidin-3-yl]methoxy}-4-fluorophenyl)-3-methyl-5-{[5-(trifluoromethyl)pyrazin-2-yl]amino}-1,2-thiazole-4-carboxamide]	81 nM	59 nM	–
Cc1nsc(Nc2cnc(C(F)(F)F)cn2)c1C(=O)Nc1ccc(OCC2CCN(CCC(F)(F)F)CC2(F)F)nc1 (stereo not shown) [Example 402, N-(6-{[3,3-difluoro-1-(3,3,3-trifluoropropyl)piperidin-4-yl]methoxy}pyridin-3-yl)-3-methyl-5-{[5-(trifluoromethyl)pyrazin-2-yl]amino}-1,2-thiazole-4-carboxamide]	1200 nM	3400 nM	–
Cc1nsc(Nc2cnc(C(F)(F)F)cn2)c1C(=O)Nc1ccc(F)c(OC[C@@H]2CCN(CC(F)F)C2)c1 [Example 403, N-(3-{[(3R)-1-(2,2-difluoroethyl)pyrrolidin-3-yl]methoxy}-4-fluorophenyl)-3-methyl-5-{[5-(trifluoromethyl)pyrazin-2-yl]amino}-1,2-thiazole-4-carboxamide]	30 nM	27 nM	42 nM
Cc1nsc(Nc2cnc(C(F)(F)F)cn2)c1C(=O)Nc1ccc(OC[C@H]2CCN(CC(F)(F)F)C2)nc1 [Example 404, 3-Methyl-N-(6-{[(3S)-1-(2,2,2-trifluoroethyl)pyrrolidin-3-yl]methoxy}pyridin-3-yl)-5-{[5-(trifluoromethyl)pyrazin-2-yl]amino}-1,2-thiazole-4-carboxamide]	63 nM	20 nM	–
CCN1CCC(Oc2ccc(NC(=O)c3c(C)nsc3Nc3cnc(C(F)(F)F)cn3)cn2)C(F)(F)C1 (stereo not shown) [Example 406, N-{6-[(1-Ethyl-3,3-difluoropiperidin-4-yl)oxy]pyridin-3-yl}-3-methyl-5-{[5-(trifluoromethyl)pyrazin-2-yl]amino}-1,2-thiazole-4-carboxamide]	33 nM	49 nM	–
Cc1nsc(Nc2cnc(C(F)(F)F)cn2)c1C(=O)Nc1ccc(OCCN2CCC(F)(F)CC2)nc1 [Example 407, N-{6-[2-(4,4-Difluoropiperidin-1-yl)ethoxy]pyridin-3-yl}-3-methyl-5-{[5-(trifluoromethyl)pyrazin-2-yl]amino}-1,2-thiazole-4-carboxamide]	39 nM	79 nM	–

Continued, values first:

IC50 [1]	IC50 ([2]; Homo sapiens, HeLa)	IC50 [2]	SMILES
3.1 nM	47 nM	–	CCCN1C[C@H](F)[C@H](Oc2ccc(NC(=O)c3c(C)nsc3Nc3cnc(C(F)(F)F)cn3)cn2)C1 [Example 408, N-(6-{[(3R,4S)-4-Fluoro-1-propylpyrrolidin-3-yl]oxy}pyridin-3-yl)-3-methyl-5-{[5-(trifluoromethyl)pyrazin-2-yl]amino}-1,2-thiazole-4-carboxamide]
21 nM	39 nM	–	Cc1nsc(Nc2cnc(C(F)(F)F)cn2)c1C(=O)Nc1ccc(O[C@@H]2CN(CCC(F)(F)F)C[C@@H]2F)nc1 [Example 409, N-(6-{[(3R,4S)-4-Fluoro-1-(3,3,3-trifluoropropyl)pyrrolidin-3-yl]oxy}pyridin-3-yl)-3-methyl-5-{[5-(trifluoromethyl)pyrazin-2-yl]amino}-1,2-thiazole-4-carboxamide]
10 nM	42 nM	–	Cc1nsc(Nc2cnc(C(F)(F)F)cn2)c1C(=O)Nc1ccc(O[C@@H]2CN(CC(F)(F)F)C[C@@H]2F)nc1 [Example 410, N-(6-{[(3R,4S)-4-Fluoro-1-(2,2,2-trifluoroethyl)pyrrolidin-3-yl]oxy}pyridin-3-yl)-3-methyl-5-{[5-(trifluoromethyl)pyrazin-2-yl]amino}-1,2-thiazole-4-carboxamide]
24 nM	39 nM	–	Cc1nsc(Nc2cnc(C(F)(F)F)cn2)c1C(=O)Nc1ccc(O[C@@H]2CN(CC(F)F)C[C@@H]2F)nc1 [Example 411, N-(6-{[(3R,4S)-1-(2,2-Difluoroethyl)-4-fluoropyrrolidin-3-yl]oxy}pyridin-3-yl)-3-methyl-5-{[5-(trifluoromethyl)pyrazin-2-yl]amino}-1,2-thiazole-4-carboxamide]
13 nM	11 nM	–	Cc1nsc(Nc2cnc(C(F)(F)F)cn2)c1C(=O)Nc1ccc(F)c(O[C@@H]2CCN(CC(F)F)C2)c1 [Example 412, N-(3-{[(3R)-1-(2,2-Difluoroethyl)pyrrolidin-3-yl]oxy}-4-fluorophenyl)-3-methyl-5-{[5-(trifluoromethyl)pyrazin-2-yl]amino}-1,2-thiazole-4-carboxamide]
17 nM	42 nM	–	Cc1nsc(Nc2cnc(C(F)(F)F)cn2)c1C(=O)Nc1ccc(F)c(O[C@@H]2CCN(CC(F)(F)F)C2)c1 [Example 413, N-(4-Fluoro-3-{[(3R)-1-(2,2,2-trifluoroethyl)pyrrolidin-3-yl]oxy}phenyl)-3-methyl-5-{[5-(trifluoromethyl)pyrazin-2-yl]amino}-1,2-thiazole-4-carboxamide]
39 nM	44 nM	–	Cc1nsc(Nc2cnc(C(F)(F)F)cn2)c1C(=O)Nc1ccc(F)c(O[C@@H]2CCN(CCC(F)(F)F)C2)c1 [Example 414, N-(4-Fluoro-3-{[(3R)-1-(3,3,3-trifluoropropyl)pyrrolidin-3-yl]oxy}phenyl)-3-methyl-5-{[5-(trifluoromethyl)pyrazin-2-yl]amino}-1,2-thiazole-4-carboxamide]
18 nM	53 nM	–	Cc1nsc(Nc2cnc(C(F)(F)F)cn2)c1C(=O)Nc1ccc(F)c(O[C@H]2CCN(CCC(F)(F)F)C2)c1 [Example 415, N-(4-Fluoro-3-{[(3S)-1-(3,3,3-trifluoropropyl)pyrrolidin-3-yl]oxy}phenyl)-3-methyl-5-{[5-(trifluoromethyl)pyrazin-2-yl]amino}-1,2-thiazole-4-carboxamide]
